Measurements reported in patent US20250177383A1, “DI-CYCLOPROPYL BASED IL-17A MODULATORS AND USES THEREOF” (DICE ALPHA, INC., priority 2022, published 2025).

Tests used:
[1] = Microsomal stability, rat liver microsomes; assay type: in vitro ADME; conditions: SD rat liver microsomes 0.5 mg protein/mL, 1 μM test compound, NADPH, 37° C., 60 min; read-out: RLM Clint
Experimental: (§1) Test compound and control working solution preparation. 5 μL of a compound and control stock solution (10 mM in dimethyl sulfoxide (DMSO)) were diluted with 495 μL of acetonitrile (ACN).
(§2) NADPH cofactor preparation. The appropriate amount of NADPH powder was weighed and diluted into a 10 mM MgCl2 solution (working solution concentration: 10 mM; final concentration in reaction system: 1 mM). Materials: NADPH powder: β-Nicotinamide adenine dinucleotide phosphate reduced form, tetrasodium salt; NADPHA4Na (Vendor: Chem-Impex International, Cat. No. 00616).
(§3) Liver Microsome Preparation. The appropriate concentrations of microsome working solutions were prepared in 100 mM potassium phosphate buffer. Materials: Human Liver Microsomes (HLM) Cat No. 452117 and Lot No. 38295 (Corning); SD Rat Liver Microsomes (RLM) Cat No. R1000 and Lot No. 1910100 (Xenotech).
(§4) Stop solution preparation. Cold (4° C.) acetonitrile (ACN) containing 200 ng/mL tolbutamide and 200 ng/mL labetalol as internal standards (IS) were used as the stop solution.
(§5) Assay Procedure. Empty incubation plates (T60 and NCF60) were warmed for 10 mins prior to use. Liver microsomes were diluted to 0.56 mg/mL in 100 mM phosphate buffer. 445 uL microsome working solutions (0.56 mg/mL) were transferred into pre-warmed ‘Incubation’ plates T60 and NCF60, Then ‘Incubation’ plates T60 and NCF60 were pre-incubated for 10 min at 37° C. with constant shaking. 54 μL liver microsomes were transferred to the blank plate, then 6 μL NAPDH cofactor were added to the blank plate, followed by the addition 180 μL quenching solution to the blank plate. 5 μL compound working solution (100 μM) were added into ‘incubation’ plates (T60 and NCF60) containing microsomes and mixed thoroughly 3 times. To the NCF60 plate 50 μL of buffer were added and mixed 3 times thoroughly. Start timing; plate was incubated at 37° C. for 60 min while shaking. In ‘Quenching’ plate TO, were added 180 μL quenching solution and 6 μL NAPDH cofactor. Plate is chilled to prevent evaporation. The T60 plate, was mixed 3 times thoroughly, and immediately 54 μL of the mixture was removed for the 0-min time point to ‘Quenching’ plate. Then 44 μL NAPDH cofactor was added to the incubation plate (T60). Start timing; plate was incubated at 37° C. for 60 min while shaking. Final concentrations of each component in the incubation media: Microsome (0.5 mg protein/mL); Test compound (1 μM); control compound ([…]); ACN (0.99%); and DMSO (0.01%). At 5, 15, 30, 45, and 60 min, 180 μL quenching solution was added to ‘Quenching’ plates, mixed once, and serially transferred 60 μL of sample from T60 plate per time point to ‘Quenching’ plates. For the NCF60 plate, mix once and 60 μL of sample was transferred from the NCF60 incubation to ‘Quenching’ plate containing quenching solution at the 60-min time point (Start time 1:00:00 and End Time 0:00:00).
(§6) All sampling plates were shaken for 10 min, then centrifuged at 4000 rpm for 20 minutes at 4° C. 80 μL of supernatant were transferred into 240 μL HPLC water, and mixed by plate shaker for 10 min. Each bioanalysis plate was sealed and shaken for 10 minutes prior to LC-MS/MS analysis.

[2] = Microsomal stability, human liver microsomes; assay type: in vitro ADME; conditions: human liver microsomes 0.5 mg protein/mL, 1 μM test compound, NADPH, 37° C., 60 min; read-out: HLM Clint
Experimental: as §1, §2, §3, §4, §5, §6

Rat pharmacokinetics, PO = assay type: in vivo; conditions: male rat, PO 5 mg/kg oral gavage, plasma, Linear/log trapezoidal; read-out: Rat PO AUC0-t
Experimental: Formulations for PO. An appropriate amount of the test article is weighed and mixed with the appropriate volume of vehicle to get a clear solution or a uniform suspension, vortexing or sonication in water bath may used. Animals are dosed within four hours after the formulation is prepared.
Formulation samples are removed from each of the formulation solutions or suspensions, transferred into 1.5 mL of polypropylene microcentrifuge tubes and run dose validated by LC/UV or LC-MS/MS.
Dose administration. For PO dosing, the dose formulation is administered via oral gavage.
Blood Collection. Each blood collection (about 0.2 mL per time point) is performed from carotid artery cannula (CAC) of each animal into a pre-chilled commercial EDTA-K2 tubes as anti-coagulant, then placed on wet ice until centrifugation. Blood samples are processed for plasma by centrifugation at approximately 4° C., 3,200 g for 10 min. Plasma is collected respectively and a certain amount of plasma from rat is transferred into pre-labeled 96 well plate or polypropylene tubes, quick frozen over dry ice and kept at −60° C. or lower until LC-MS/MS analysis. After terminal collection, all plasmas are stored at approximately −80° C. freezer until final analysis.
Plasma concentration versus time data are plotted in graph and analyzed by non-compartmental approaches using the Phoenix WinNonlin 6.3 software program. Trapezoids: Before TMax (Linear); After Tmax (Log). Partial Area Interpolations: Before TMax (Linear); After Tmax (Log).

IL-17A/A = molecular target: T1, IL-17A/A (Homo sapiens, UniProt Q16552); test: IL-17A/A HEK-Blue Cell Assay; assay type: cell-based; conditions: HEK-Blue IL-17 reporter cells, IL-17A/A stimulation, 20 hours, SEAP readout; read-out: IL17 AA HEK-5 pIC50 (converted)
T1 sequence (Q16552 24-155): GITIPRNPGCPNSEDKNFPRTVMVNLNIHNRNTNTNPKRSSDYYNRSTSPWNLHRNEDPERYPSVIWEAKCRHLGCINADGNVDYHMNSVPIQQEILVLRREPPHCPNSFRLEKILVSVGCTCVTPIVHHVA
Outline: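 Cells co-expressing IL-17RA, IL-17RC and Act1 received titrated compound, top final 10 uM in 0.1% DMSO, immediately before IL-17A/A stimulation.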

IL-17A/F = molecular target: T2, IL-17A/F (Homo sapiens, UniProt Q16552+Q96PD4); test: IL-17A/F HEK-Blue Cell Assay; assay type: cell-based; conditions: HEK-Blue IL-17 reporter cells, IL-17A/F stimulation, 20 hours, SEAP readout; read-out: IL17AF HEK Blue pIC50 (converted)
T2 sequence (Q16552 24-155): T1 sequence (Q16552 24-155)
T2 sequence (Q96PD4 31-163): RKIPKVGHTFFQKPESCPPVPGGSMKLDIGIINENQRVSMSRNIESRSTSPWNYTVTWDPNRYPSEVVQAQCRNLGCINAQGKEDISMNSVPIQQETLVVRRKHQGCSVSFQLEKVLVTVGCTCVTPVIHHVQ

SMILES	microsomal CLint at 1 μM [1]	microsomal CLint at 1 μM [2]	AUC(0-t) (Rat pharmacokinetics, PO)	IC50 (IL-17A/A)	IC50 (IL-17A/F)
CCn1nccc1C(=O)N[C@H](C(=O)Nc1ccc([C@H](C)[C@@H](NC(=O)COC)C(=O)N2CCN(C)CC2)cc1F)C(C1CC1)C1CC1 [Compound 215]	< 9.6 µL/min/mg	50 to 150 µL/min/mg	> 1000 ng·h/mL	10 to 100 nM	10 to 100 nM
CCC(=O)N[C@@H](C(=O)N1C[C@@H](C)N(C)C[C@H]1C)[C@@H](C)c1ccc(NC(=O)[C@@H](NC(=O)c2ccnn2CC)C(C2CC2)C2CC2)c(F)c1 [Compound 212]	9.6 to 20 µL/min/mg	< 50 µL/min/mg	500 to 1000 ng·h/mL	< 10 nM	10 to 100 nM
CCC(=O)N[C@@H](C(=O)N1CCN(C)[C@H](C)C1)[C@@H](C)c1ccc(NC(=O)[C@@H](NC(=O)C2(F)CC2)C(C2CC2)C2CC2)c(F)c1 [Compound 245]	< 9.6 µL/min/mg	< 50 µL/min/mg	> 1000 ng·h/mL	10 to 100 nM	100 to 10000 nM
CCn1nccc1C(=O)N[C@H](C(=O)Nc1ccc([C@H](C)[C@@H](NC(=O)COC)C(=O)N2CCN(C)C(CF)C2)cc1F)C(C1CC1)C1CC1 (single isomer, unassigned) [Compound 298]	< 9.6 µL/min/mg	< 50 µL/min/mg	> 1000 ng·h/mL	< 10 nM	10 to 100 nM
CCC(=O)N[C@@H](C(=O)N1CCN(C)[C@@H](C)C1)[C@@H](C)c1ccc(NC(=O)[C@@H](NC(=O)c2ccnn2CC)C(C2CC2)C2CC2)c(F)c1 [Compound 213]	< 9.6 µL/min/mg	50 to 150 µL/min/mg	500 to 1000 ng·h/mL	< 10 nM	10 to 100 nM
